In article PMC5520057, “Modulation of nongenomic activation of PI3K signalling by tetramerization of N-terminally-cleaved RXRα” (Nature Communications, 2017):

Legend:
RXRα-LBD [1] = molecular target: T1, RXRα-LBD (Homo sapiens, UniProt P19793); experiment: Isothermal titration calorimetry (ITC), RXRα-LBD; format: binding; conditions: 25 °C, protein 50 μM in 25 mM Tris-HCl, pH 7.5, 150 mM NaCl, 0.1% DMSO, compound 1 mM
T1 construct: The human RXRα LBD (residues Thr223 to Thr462); made in house; host or cells: Escherichia coli BL21
T1 sequence (P19793 223-462): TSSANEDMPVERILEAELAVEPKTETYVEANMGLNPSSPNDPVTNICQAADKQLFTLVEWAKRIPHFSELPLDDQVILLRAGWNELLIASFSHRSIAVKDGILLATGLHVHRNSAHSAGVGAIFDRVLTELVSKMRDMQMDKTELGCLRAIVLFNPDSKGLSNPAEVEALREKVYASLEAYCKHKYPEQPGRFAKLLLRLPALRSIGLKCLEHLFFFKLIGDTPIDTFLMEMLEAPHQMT
Experimental: (§1) The human RXRα LBD (residues Thr223 to Thr462) cloned as an N-terminal histidine-tagged fusion protein in pET15b expression vector was expressed in Escherichia coli BL21 strain (Stratagene). After sonication, cell extract was incubated with the His60 Ni Superflow resin, and His-tagged RXRα-LBD-resin complexes were washed, eluted and concentrated to 5 mg ml^−1 for subsequent trails. For crystallization experiment, bovine thrombin (Sigma) was used to cleave the His tag from the purified His-tagged RXRα-LBD. The resulting His tag was removed on the Resource-Q column (GE) using 0.1–1 M NaCl gradient and the Tris-Cl pH 8 buffer. RXRα-LDB was further purified using gel filtration on a Superdex 200 2660 column (GE) pre-equilibrated with the 75 mM NaCl, 20 mM Tris-Cl buffer (pH 8).
Binding of compounds to RXRα-LBD or mutant was studied in […] at 25 °C using isothermal titration calorimetry (ITC) assay that measures the heat either released or absorbed during binding. The purified His-tagged RXRα-LBD or mutant protein (50 μM in 25 mM Tris-HCl, pH 7.5, 150 mM NaCl, 0.1% DMSO) was placed in the sample cell of MicroCal VP-ITC titration calorimeter. The compounds to be studied were diluted to a concentration of 1 mM in the same buffer. All solutions were degassed before the titrations. […] Calorimetric data were analysed using MicroCal Origin software (version 7.0).

RXRα-LBD [2] = molecular target: T1, RXRα-LBD; experiment: Non-denaturing gel electrophoresis, oligomeric state of RXRα-LBD; format: biochemical; conditions: purified RXRα-LBD; 9-cis-RA (0.5 μM) and/or K-80003 (20 μM), 3 h at 4 °C
Experimental: as §1

RXRα-LBD/L433D = experiment: Non-denaturing gel electrophoresis, L433D mutant; format: biochemical, human; conditions: K-80003 (20 μM), 3 h at 4 °C
Experimental: as §1

RXRα-LBD/R316E = experiment: Non-denaturing gel electrophoresis, R316E mutant; format: biochemical, human; conditions: 9-cis-RA (0.5 μM) or K-80003 (20 μM), 3 h at 4 °C
Experimental: as §1

RXRα-LBD/F439A = experiment: Non-denaturing gel electrophoresis, F439A mutant; format: biochemical, human; conditions: K-80003 (20 μM), 3 h at 4 °C
Experimental: as §1

RXRα-LBD [3] = molecular target: T1, RXRα-LBD; experiment: Gel filtration chromatography, RXRα-LBD; format: biochemical; conditions: HiLoad 16/600 Superdex 200 pg, 50 mM Tris-Cl (pH 7.4), 200 mM NaCl, 1 ml min^−1; 2 h incubation; one of three similar experiments
Experimental: as §1

tRXRα = experiment: BS3 crosslinking, transfected tRXRα; format: cell-based
Experimental: (§2) Cell lysates were then prepared and incubated with bis[sulfosuccinimidyl] suberate (BS3, Pierce) dissolved in dimethyl sulfoxide to a final concentration of 1 mM. The reactions were stopped with protein gel loading buffer. Samples were resolved by SDS/PAGE in 8% acrylamide gels and protein bands were visualized by western blotting.

RXRα = experiment: BS3 crosslinking, transfected full-length RXRα; format: cell-based; conditions: HepG2 cells; K-80003 (5 × 10^−6 M) for 6 h; BS3 1 mM; western blotting
Experimental: as §2

[4] = system: p85α / tRXRα/F313A interaction; experiment: coIP, p85α with tRXRα/F313A; format: cell-based; conditions: HEK293T cells; K-80003 (5 × 10^−6 M) for 6 h; coIP anti-HA
Experimental: For coIP assay[29], HEK293T cells grown in 10 cm dishes were transfected with various plasmids. Cells were lysed in 1 ml of lysis buffer (20 mM Tris (pH 7.5), 150 mM NaCl, 1% Triton X-100, 1 mM EDTA, 30 mM NaF, 2 mM sodium pyrophosphate) with a cocktail of proteinase inhibitors (Roche). Lysates were incubated with the appropriate antibody for 12 h at 4 °C and subsequently incubated with protein A-Sepharose beads for 1 h. The immunoprecipitates were collected and washed three times with lysis buffer. The protein–antibody complexes recovered on beads were subjected to immunoblotting using appropriate antibodies after separation by SDS-PAGE. Input represents 5% of cell lysates used for coIP assays.

MMTV-PyMT mammary tumour = experiment: MMTV-PyMT tumours, Ki-67 immunostaining; format: in vivo, MMTV-PyMT mice; conditions: diet with K-80003 (100 mg kg^−1) for 4 weeks; Ki-67 positive cells scored from 500 cells
Experimental: For nude mice xenograft study, Myc-RXRα and Myc-tRXRα cloned into pcdna3.0 vector were stably transfected into MCF-7 cells, and the resulting stable clones and control clone (2 × 10^6 cells in 100 μl) were injected subcutaneously into nude mice (BALB/c, SPF grade, 16–18 g, 4–5-week old). For drug treatment, mice were intraperitoneally injected (i.p.) daily with K-80003 (20 mg kg^−1) diluted in Tween-80 or vehicle (tween-80). Body weight and tumour size were measured every 2 days. Mice were killed after 12-day drug treatment and the tumours removed for various assessments. For MMTV-PyMT transgenic mouse study, 4-week old female mice of a transgenic mouse on the FVB/N genetic background expressing the PyMT oncogene under the control of MMTV LTR promoter[40] were fed with diet containing with or without K-80003 (100 mg kg^−1) for 4 weeks. Estimation of tumour appearance was performed by palpation once every day. Tumour tissues of left thoracic mammary glands were excised after the treatment. […]
(a) Expression of tRXRα in MMTV-PyMT mammary tumors analyzed by Western blotting using ΔN197 anti-RXRα antibody.
(b) Tumor sections from MMTV-PyMT mice fed with vehicle or K-80003 were immunostained with anti-Ki-67 antibody. Ki-67 positive cells were scored from 500 cells. […]

SMILES: CC1=C(CC(=O)O)c2cc(F)ccc2/C1=C\c1ccc(C(C)C)cc1 [K-80003]
- N (stoichiometry) (RXRα-LBD [1]): 1.52
- effect on RXRα-LBD oligomeric state (RXRα-LBD [2]): induced an accumulation of tetramers
- effect on tetramerization of RXRα-LBD/L433D (RXRα-LBD/L433D): failed to bind to RXRα-LBD/L433D (Supplementary Fig. 5a) and promote its tetramerization
- effect on oligomeric state of RXRα-LBD/R316E (RXRα-LBD/R316E): exhibited mainly as a tetramer independent of the presence of either 9-cis-RA or K-80003
- effect on tetramerization of F439A mutant (RXRα-LBD/F439A): impaired the tetramerization of respective mutants by K-80003
- oligomeric state of RXRα-LBD by gel filtration (RXRα-LBD [3]): mainly existed as a tetramer
- tetramerization of tRXRα with cotransfected RXRα A/B domain (tRXRα; HEK293T cells, tRXRα together with RXRα-A/B, K-80003, BS3, one of three similar experiments): completely suppressed the effect of K-80003 on promoting tRXRα tetramerization
- tetramerization of tRXRα (tRXRα; HepG2 cells, K-80003 (5 × 10^−6 M) for 6 h, BS3 1 mM, western blotting): effectively promoted the formation of tRXRα tetramers
- tetramerization of full-length RXRα (RXRα): failed to promote the tetramerization of the full-length RXRα
- modulation of tRXRα/F313A interaction with p85α [4]: failed to modulate the interaction of both mutants with p85α
- tumour cell proliferation (Ki-67) (MMTV-PyMT mammary tumour): inhibition of tumour cell proliferation
